# ChEMBL document CHEMBL6182926, “Design, Synthesis, and Biological Activity Evaluation of Deuterated Diphenyl Azole Alcohol-Based CYP51 Inhibitors” (J Med Chem, 2025)
# pIC50: −log10 of the molar value.
# Key:
# Cryptococcus neoformans [1] = assay: Antifungal activity against Cryptococcus neoformans CGMCC 2.3161 assessed as reduction in other sterol at 0.0125 ug/ml measured after 18 hrs incubation by gas chromatography-mass spectrometry (GCMS) analysis (reference value: 2.20%); format: functional; set-up: scale not given: the % may be the effect or the level left; details: dose 0.0125 µg/ml
# Candida albicans [2] = assay: Antifungal activity against Candida albicans SC5314 assessed as reduction in other sterol at 0.05 ug/ml measured after 18 hrs incubation by gas chromatography-mass spectrometry (GCMS) analysis (reference value: 2.59%); format: functional; set-up: scale not given: the % may be the effect or the level left; details: dose 0.05 µg/ml
# Cryptococcus neoformans [3] = assay: Antifungal activity against Cryptococcus neoformans CGMCC 2.3161 assessed as reduction in Lanosterol at 0.0125 ug/ml measured after 18 hrs incubation by gas chromatography-mass spectrometry (GCMS) analysis; format: functional; set-up: scale not given: the % may be the effect or the level left; details: dose 0.0125 µg/ml
# [4] = (§1) Selectivity ratio, ratio of IC50 for cytotoxicity against human SH-SY5Y cells to MIC80 for antifungal activity against Candida albicans CPCC 400616; format: toxicity, cell-based
# [5] = (§2) Selectivity ratio, ratio of IC50 for cytotoxicity against human SH-SY5Y cells to MIC80 for antifungal activity against Candida tropicalis CGMCC 2.3739; format: toxicity, cell-based
# Pichia kudriavzevii [6] = assay: Antifungal activity against Candida krusei AS 2.1045 assessed as inhibition of visible growth; format: functional
# Aspergillus fumigatus = assay: Antifungal activity against Aspergillus fumigatus CGMCC 3.7795 assessed as inhibition of visible growth; format: functional
# [7] = as §2; format: toxicity, cell-based; remark: listed apart in the source
# Candida albicans [8] = assay: Antifungal activity against Candida albicans SC5314 assessed as reduction in Eburicol at 0.05 ug/ml measured after 18 hrs incubation by gas chromatography-mass spectrometry (GCMS) analysis; format: functional; set-up: scale not given: the % may be the effect or the level left; details: dose 0.05 µg/ml
# Candida albicans [9] = assay: Antifungal activity against Candida albicans SC5314 assessed as reduction in Obtusifoliol at 0.05 ug/ml measured after 18 hrs incubation by gas chromatography-mass spectrometry (GCMS) analysis; format: functional; set-up: scale not given: the % may be the effect or the level left; details: dose 0.05 µg/ml
# [10] = Cytotoxicity against human HUVEC cells measured after 72 hrs by MTT assay; format: toxicity, cell-based
# Cytochrome P450 3A4 = Cytochrome P450 3A4 (Homo sapiens, UniProt P08684); assay: Inhibition of CYP3A4 in human liver microsomes using midazolam as substrate measured after 10 mins by LC/MS/MS analysis; format: ADME, Microsome
# [11] = Subacute toxicity in ICR mouse assessed as change in body weight at 100 mg/kg, oral gavage for 14 consecutive days; format: organism-based; details: in vivo, 336 h, time 14 day
# [12] = Metabolic stability in human liver microsomes assessed as compound remaining measured up to 60 mins by LC-MS/MS analysis; format: ADME, Microsome; details: liver microsomes, read-out: Activity
# [13] = (§3) Selectivity ratio, ratio of IC50 for cytotoxicity against human SH-SY5Y cells to MIC80 for antifungal activity against Candida parapsilosis GIM 2.190; format: toxicity, cell-based
# [14] = Metabolic stability in human liver microsomes assessed as half life by LC-MS/MS analysis; format: ADME, Microsome; details: liver microsomes
# Candida albicans [15] = assay: Antifungal activity against Candida albicans SC5314 assessed as reduction in ergosterol at 0.05 ug/ml measured after 18 hrs incubation by gas chromatography-mass spectrometry (GCMS) analysis (reference value: 96.72%); format: functional; set-up: scale not given: the % may be the effect or the level left; details: dose 0.05 µg/ml
# Cryptococcus neoformans [16] = assay: Antifungal activity against Cryptococcus neoformans CGMCC 2.3161 assessed as reduction in Lanosterol at 0.125 ug/ml measured after 18 hrs incubation by gas chromatography-mass spectrometry (GCMS) analysis; format: functional; set-up: scale not given: the % may be the effect or the level left; details: dose 0.125 µg/ml
# Cryptococcus neoformans [17] = assay: Antifungal activity against Cryptococcus neoformans CGMCC 2.3161 assessed as reduction in ergosterol at 0.0125 ug/ml measured after 18 hrs incubation by gas chromatography-mass spectrometry (GCMS) analysis (reference value: 94.48%); format: functional; set-up: scale not given: the % may be the effect or the level left; details: dose 0.0125 µg/ml
# Candida tropicalis = assay: Antifungal activity against Candida tropicalis CGMCC 2.3739 assessed as inhibition of visible growth; format: functional
# [18] = Toxicity in ICR mouse assessed as change in body weight at 500 mg/kg, po single dose measured for 7 days; format: organism-based; details: in vivo, 168 h, time 7 day
# [19] = as §3; format: toxicity, cell-based; remark: listed apart in the source
# Nakaseomyces glabratus [20] = assay: Inhibition of biofilm formation in clinical isolate Candida glabrata assessed as inhibition of metabolic activity of biofilm measured after 24 hrs by XTT assay; format: functional
# Cytochrome P450 2C9 = Cytochrome P450 2C9 (Homo sapiens, UniProt P11712); assay: Inhibition of CYP2C9 in human liver microsomes using diclofenac as substrate measured after 10 mins by LC/MS/MS analysis; format: ADME, Microsome
# [21] = Oral bioavailability in Sprague-Dawley rat at 10 mg/kg by LC-MS/MS analysis; format: ADME, organism-based; details: in vivo
# Pichia kudriavzevii [22] = assay: Fungicidal activity against Candida krusei AS 2.1045 assessed as concentration of colonies (< 5) measured after 48 hrs incubation; format: functional
# [23] = Toxicity in ICR mouse assessed as mortality at 500 mg/kg, po single dose measured for 7 days; format: organism-based; details: in vivo, 168 h, time 7 day
# [24] = as §1; format: toxicity, cell-based; remark: listed apart in the source
# Nakaseomyces glabratus [25] = assay: Fungicidal activity against Clinical isolate Candida glabrata assessed as concentration of colonies (< 5) measured after 48 hrs incubation; format: functional
# Cryptococcus neoformans [26] = assay: Antifungal activity against Cryptococcus neoformans CGMCC 2.3161 assessed as reduction in Obtusifoliol at 0.125 ug/ml measured after 18 hrs incubation by gas chromatography-mass spectrometry (GCMS) analysis; format: functional; set-up: scale not given: the % may be the effect or the level left; details: dose 0.125 µg/ml
# [27] = MRT (0 to infinity) in Sprague-Dawley rat at 10 mg/kg, po by LC-MS/MS analysis; format: ADME, organism-based; details: in vivo
# Nakaseomyces glabratus [28] = assay: Antifungal activity against Clinical isolate Candida glabrata assessed as inhibition of visible growth; format: functional
# Cryptococcus neoformans [29] = assay: Antifungal activity against Cryptococcus neoformans CGMCC 2.3161 assessed as reduction in Eburicol at 0.125 ug/ml measured after 18 hrs incubation by gas chromatography-mass spectrometry (GCMS) analysis; format: functional; set-up: scale not given: the % may be the effect or the level left; details: dose 0.125 µg/ml
# Cryptococcus neoformans [30] = assay: Fungicidal activity against Cryptococcus neoformans CGMCC 2.3161 assessed as concentration of colonies (< 5) measured after 48 hrs incubation; format: functional
# Candida albicans [31] = assay: Antifungal activity against Candida albicans SC5314 assessed as reduction in 14alpha-methylsterols at 0.05 ug/ml measured after 18 hrs incubation by gas chromatography-mass spectrometry (GCMS) analysis (reference value: 0.69%); format: functional; set-up: scale not given: the % may be the effect or the level left; details: dose 0.05 µg/ml
# Cryptococcus neoformans [32] = assay: Antifungal activity against Cryptococcus neoformans CGMCC 2.3161 assessed as inhibition of visible growth; format: functional
# Cryptococcus neoformans [33] = assay: Antifungal activity against Cryptococcus neoformans CGMCC 2.3161 assessed as reduction in ergosterol at 0.125 ug/ml measured after 18 hrs incubation by gas chromatography-mass spectrometry (GCMS) analysis (reference value: 94.48%); format: functional; set-up: scale not given: the % may be the effect or the level left; details: dose 0.125 µg/ml
# Cryptococcus neoformans [34] = assay: Antifungal activity against Cryptococcus neoformans CGMCC 2.3161 assessed as reduction in Obtusifoliol at 0.0125 ug/ml measured after 18 hrs incubation by gas chromatography-mass spectrometry (GCMS) analysis; format: functional; set-up: scale not given: the % may be the effect or the level left; details: dose 0.0125 µg/ml
# Candida albicans [35] = assay: Antifungal activity against Candida albicans SC5314 assessed as reduction in Lanosterol at 0.05 ug/ml measured after 18 hrs incubation by gas chromatography-mass spectrometry (GCMS) analysis; format: functional; set-up: scale not given: the % may be the effect or the level left; details: dose 0.05 µg/ml
# Mus musculus = assay: In vivo antifungal activity against Candida albicans SC5314 infected in ICR mouse model assessed as mouse survival at 5 mg/kg, oral gavage measured for 21 days post infection; format: functional; details: 504 h, time 21 day
# Chain of Cytochrome P450 3A4 (P08684 whole entry): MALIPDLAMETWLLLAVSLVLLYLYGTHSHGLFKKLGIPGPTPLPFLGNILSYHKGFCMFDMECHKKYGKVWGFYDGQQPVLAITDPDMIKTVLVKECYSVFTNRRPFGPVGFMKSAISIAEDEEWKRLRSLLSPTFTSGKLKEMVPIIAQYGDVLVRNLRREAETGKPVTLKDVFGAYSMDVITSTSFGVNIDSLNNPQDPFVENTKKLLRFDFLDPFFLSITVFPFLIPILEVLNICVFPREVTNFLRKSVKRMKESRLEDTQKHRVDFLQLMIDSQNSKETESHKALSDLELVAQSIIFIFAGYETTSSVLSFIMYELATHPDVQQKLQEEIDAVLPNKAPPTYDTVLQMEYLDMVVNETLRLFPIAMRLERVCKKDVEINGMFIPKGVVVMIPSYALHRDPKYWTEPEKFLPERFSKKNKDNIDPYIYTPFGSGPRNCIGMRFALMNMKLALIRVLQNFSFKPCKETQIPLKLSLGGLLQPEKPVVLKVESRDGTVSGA
# Chain of Cytochrome P450 2C9 (P11712 whole entry): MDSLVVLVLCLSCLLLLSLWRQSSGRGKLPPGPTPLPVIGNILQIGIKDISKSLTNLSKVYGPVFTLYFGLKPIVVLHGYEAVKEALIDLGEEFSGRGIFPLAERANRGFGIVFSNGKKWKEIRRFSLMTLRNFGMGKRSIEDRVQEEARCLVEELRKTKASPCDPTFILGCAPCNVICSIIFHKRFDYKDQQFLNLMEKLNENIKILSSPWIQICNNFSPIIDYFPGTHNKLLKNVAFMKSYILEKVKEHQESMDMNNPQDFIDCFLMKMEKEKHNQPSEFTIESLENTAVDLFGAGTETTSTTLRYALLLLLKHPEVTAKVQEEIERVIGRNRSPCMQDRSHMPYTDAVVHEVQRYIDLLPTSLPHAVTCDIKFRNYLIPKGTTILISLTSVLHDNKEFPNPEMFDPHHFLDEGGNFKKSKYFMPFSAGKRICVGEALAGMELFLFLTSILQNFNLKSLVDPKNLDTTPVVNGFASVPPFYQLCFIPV
smiles,measurement,setting,value
[2H]C([2H])([2H])N(Cc1ccc(-c2ccc(OC(F)(F)F)cc2)cc1)[C@H](C)[C@](O)(Cn1cncn1)c1ccc(F)cc1F,Activity,Cryptococcus neoformans [1],8.38%
same,Activity,Candida albicans [2],3.13%
same,Activity,Cryptococcus neoformans [3],8.58%
same,selectivity ratio,[4],> 100
same,selectivity ratio,[5],> 100
same,MIC80,Pichia kudriavzevii [6],0.012 µg/mL
same,MIC80,Aspergillus fumigatus,0.025 µg/mL
same,selectivity ratio,[7],> 100
same,Activity,Candida albicans [8],46.42%
same,Activity,Candida albicans [9],18%
same,IC50 at 72 h,[10],23.5 µM
same,pIC50,Cytochrome P450 3A4,5.18
same,Activity,[11],Non-toxic
same,remaining at 1 h,[12],34.4%
same,selectivity ratio,[13],> 100
same,half-life,[14],0.67 h
same,Activity,Candida albicans [15],3.68%
same,Activity,Cryptococcus neoformans [16],6.14%
same,Activity,Cryptococcus neoformans [17],62.56%
same,MIC80,Candida tropicalis,0.006 µg/mL
same,Activity,[18],Non-toxic
same,selectivity ratio,[19],> 100
same,MIC50,Nakaseomyces glabratus [20],0.062 µg/mL
same,pIC50,Cytochrome P450 2C9,5.75
same,bioavailability,[21],63.4%
same,MFC,Pichia kudriavzevii [22],0.125 µg/mL
same,Activity,[23],Non-toxic
same,selectivity ratio,[24],> 100
same,MFC,Nakaseomyces glabratus [25],0.5 µg/mL
same,Activity,Cryptococcus neoformans [26],26.05%
same,MRT inf,[27],6.18 h
same,MIC80,Nakaseomyces glabratus [28],0.012 µg/mL
same,Activity,Cryptococcus neoformans [29],47.42%
same,MFC,Cryptococcus neoformans [30],0.062 µg/mL
same,Activity,Candida albicans [31],7.73%
same,MIC80,Cryptococcus neoformans [32],0.012 µg/mL
same,Activity,Cryptococcus neoformans [33],5.68%
same,Activity,Cryptococcus neoformans [34],5.76%
same,Activity,Candida albicans [35],21.92%
same,survival at 5 mg/kg,Mus musculus,100%
